Experimental data taken from US8263762B2, “Alkoxy-carbonyl-amino-alkynyl-adenosine compounds and derivatives thereof as A2AR agonists” (Dogwood Pharmaceuticals, Inc., priority 2009, dated 2012).

System: Japanese white rabbits
Test: Test for intraocular pressure reduction using Japanese white rabbits
Assay type: in vivo
Experimental: (1) Test for intraocular pressure reduction using Japanese white rabbits: In order to examine the usefulness of the present compound as a preventive or therapeutic agent for glaucoma or ocular hypertension, an intraocular pressure lowering effect when the present compound was administered to Japanese white rabbits (sex: male) was evaluated and studied. As the test compound, Compound A was used. […]
Administration method and measurement method: Just before any of the test liquids was administered, one drop of 0.4% oxybuprocaine hydrochloride eye drop was instilled into both eyes of each experimental animal to achieve local anesthesia, and the intraocular pressure was measured using an applanation tonometer. This intraocular pressure was determined as an initial intraocular pressure. […]
After the test liquid was administered, the intraocular pressure of both eyes of each experimental animal was measured at predetermined times (at 1, 2, 4 and 6 hours after administration). […]
Calculation of intraocular pressure reduction degree: The intraocular pressure reduction degree of each test compound administration group at each measurement time was calculated from the following calculation formula. Among the obtained intraocular pressure reduction degrees at respective measurement times, the maximum value was determined as a maximum intraocular pressure reduction degree. […]

**Q.** COC(=O)N(C)CC#Cc1nc(N)c2ncn([C@@H]3O[C@H](C(=O)NC4CC4)C(O)C3O)c2n1 (some centres unmarked) [Compound A] was tested. Which “intraocular pressure lowering action” value (Japanese white rabbits, eye drop) did it give?
**A.** exhibited an intraocular pressure lowering action

**Q.** And the “Maximum intraocular pressure reduction degree” value (male Japanese white rabbits, 0.01% (w/v) eye drop, single dose into one eye, maximum of 1, 2, 4 and 6 hours, average of 5 cases)?
**A.** 3.9 mmHg
